Earlier results as cited in US4652627A, “Calcitonin analogs with C-terminal D-amino acid substituents” (priority 1985, dated 1987).
Positions of bridges follow the written chain, without caps; N, C: chain ends. No end group written: not given here.

Conditions: relative to human calcitonin = 100%

Substance	activity [%]
deletion of the entire prolinamide moiety: human calcitonin with the entire C-terminal prolinamide moiety deleted (CGNLSTCMLGTYTQDFNKFHTFPQTAIGVGA; ends and bridges not checked; cysteine pairing not given here; UniProt P01258 85-115, looked up, fragment)	0.12
human calcitonin (CGNLSTCMLGTYTQDFNKFHTFPQTAIGVGAP-NH2; disulfide 1-7; ends not checked; UniProt P01258 85-116, looked up) [natural 32 amino acid calcitonin of human origin with C-terminal prolinamide]	100
